Test results published in PMC6649662, “A molecular basis of human T cell receptor autoreactivity toward self-phospholipids” (Science immunology, 2017).

Key:
CD1b (CD1b-β2m) [1] = molecular target: T1, CD1b (CD1b-β2m) (Homo sapiens, UniProt P29016); assay: X-ray crystal structure; details: antigen-binding cleft, with scaffold lipids; weak density for head group
T1 construct: soluble, transmembrane-truncated CD1b with β2m; from HEK 293S GnTI- or Trichoplusia ni High Five cells; lipid-loaded and purified; with Beta-2-microglobulin

CD1b (CD1b-β2m) [2] = molecular target: T1, CD1b (CD1b-β2m); assay: lipid loading, isoelectric focusing shift and anion exchange purification; assay type: binding; details: loaded in vitro

SMILES	X-ray crystal structure (CD1b (CD1b-β2m) [1])	lipid loading, isoelectric focusing shift and anion exchange purification (CD1b (CD1b-β2m) [2])
CCCCCCCC/C=C\CCCCCCCC(=O)O[C@H](COC(=O)CCCCCCCCCCCCCCC)COP(=O)(O)O [PA, phosphatidic acid]	structures of the PG90 TCR and the CD1b-PS and CD1b- PA complexes	–
CCCCCCCC/C=C\CCCCCCCC(=O)O[C@H](COC(=O)CCCCCCCCCCCCCCC)COP(=O)(O)OCCN [PE, phosphatidylethanolamine]	–	phospholipids are loaded into CD1b at high occupancy and purified to homogeneity
CCCCCCCC/C=C\CCCCCCCC(=O)O[C@H](COC(=O)CCCCCCCCCCCCCCC)COP(=O)(O)O[C@@H]1[C@H](O)[C@H](O)[C@@H](O)[C@H](O)[C@H]1O [PI, phosphatidylinositol]	–	phospholipids are loaded into CD1b at high occupancy and purified to homogeneity
CCCCCCCC/C=C\CCCCCCCC(=O)O[C@H](COC(=O)CCCCCCCCCCCCCCC)COP(=O)(O)OC[C@H](N)C(=O)O [PS, phosphatidylserine]	structures of the PG90 TCR and the CD1b-PS and CD1b- PA complexes	–
